Assay results as given in the supplement of paper PMC4862054.

How the values were obtained:
Experiment in all cases: normalised viability (% of control), CellTiter-Blue; higher = more viable cells (about 100 = DMSO control)
Details in all cases: incubation time: 72 h
MDA-MB-231 = test system: MDA-MB-231
Outline: (§1)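 Breast cancer cell lines were treated for 72 h in 384-well format and measured by CellTiter-Blue fluorescence at 560/590 nm. Results were normalised per plate to vehicle (100) and a positive kill control (0). The entry is normalised viability at a single listed concentration of the series.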

MDA-MB-468 = test system: MDA-MB-468
Outline: as §1

CAL-148 = test system: CAL-148
Outline: as §1

SK-BR-3 = test system: SK-BR-3
Outline: as §1

CAL-85-1 = test system: CAL-85-1
Outline: as §1

HDQ-P1 = test system: HDQ-P1
Outline: as §1

MDA-MB-453 = test system: MDA-MB-453
Outline: as §1

DU-4475 = test system: DU-4475
Outline: as §1

CAL-120 = test system: CAL-120
Outline: as §1

Row | Structure (SMILES) | normalised viability (MDA-MB-231; 10 nM) [%] | normalised viability (MDA-MB-231; 1000 nM) [%] | normalised viability (MDA-MB-231; 10000 nM) [%] | normalised viability (MDA-MB-468; 10 nM) [%] | normalised viability (MDA-MB-468; 1000 nM) [%] | normalised viability (MDA-MB-468; 10000 nM) [%] | normalised viability (CAL-148; 3 nM) [%] | normalised viability (CAL-148; 30 nM) [%] | normalised viability (CAL-148; 100 nM) [%] | normalised viability (SK-BR-3; 10 nM) [%] | normalised viability (SK-BR-3; 1000 nM) [%] | normalised viability (SK-BR-3; 10000 nM) [%] | normalised viability (CAL-85-1; 3 nM) [%] | normalised viability (CAL-85-1; 30 nM) [%] | normalised viability (CAL-85-1; 100 nM) [%] | normalised viability (HDQ-P1; 3 nM) [%] | normalised viability (HDQ-P1; 30 nM) [%] | normalised viability (MDA-MB-453; 3 nM) [%] | normalised viability (DU-4475; 3 nM) [%] | normalised viability (CAL-120; 1000 nM) [%] | further results
1 | O=c1[nH]c(=O)n([C@H]2C[C@H](O)[C@@H](CO)O2)cc1F [Floxuridine] | 106 | 58.1 | 47.2 | 95.5 | 43.7 | 30.3 | 97.6 | 54.4 | 52.8 | 94.5 | 44.9 | 24 | 90.4 | 68.8 | 62.3 | 111 | 94.8 | 109 | 107 | 16.8 | normalised viability (HDQ-P1; 100 nM): 80.8%; normalised viability (MDA-MB-453; 30 nM): 79%; normalised viability (MDA-MB-453; 100 nM): 85.3%; normalised viability (DU-4475; 30 nM): 107%; normalised viability (DU-4475; 100 nM): 69.5%; normalised viability (CAL-120; 10 nM): 94.4%; normalised viability (CAL-120; 10000 nM): 21.1%
2 | CC(=O)O[C@H]1C(=O)[C@@]2(C)[C@H]([C@H](OC(=O)c3ccccc3)[C@]3(O)C[C@H](OC(=O)[C@H](O)[C@@H](NC(=O)c4ccccc4)c4ccccc4)C(C)=C1C3(C)C)[C@]1(OC(C)=O)CO[C@@H]1C[C@@H]2O [Paclitaxel] |  | 22.1 |  |  | 49.4 |  | 72.6 |  |  |  | 12.9 |  | 76.9 |  |  | 55.6 |  | 63.2 | 95.5 | 22.7 | normalised viability (MDA-MB-231; 1 nM): 79.2%; normalised viability (MDA-MB-231; 100 nM): 19.9%; normalised viability (MDA-MB-468; 1 nM): 93.5%; normalised viability (MDA-MB-468; 100 nM): 47.2%; normalised viability (CAL-148; 0.3 nM): 106%; normalised viability (CAL-148; 10 nM): 51.2%; normalised viability (SK-BR-3; 1 nM): 84.8%; normalised viability (SK-BR-3; 100 nM): 13.9%; normalised viability (CAL-85-1; 0.3 nM): 99.5%; normalised viability (CAL-85-1; 10 nM): 62.2%; normalised viability (HDQ-P1; 0.3 nM): 88.2%; normalised viability (HDQ-P1; 10 nM): 46.1%; normalised viability (MDA-MB-453; 0.3 nM): 87.7%; normalised viability (MDA-MB-453; 10 nM): 43.5%; normalised viability (DU-4475; 0.3 nM): 108%; normalised viability (DU-4475; 10 nM): 64.8%; normalised viability (CAL-120; 1 nM): 89.7%; normalised viability (CAL-120; 100 nM): 23.6%
3 | CCS(=O)(=O)c1cccc(-c2cc(C(=O)NC3CCN(C)CC3)c(C)c3[nH]c4ncc(C)cc4c23)c1 [TAK-901] |  | 20.6 |  |  | 63.6 |  | 95.3 |  |  |  | 52 |  | 86.3 |  |  | 109 |  | 111 | 88.1 | 13.2 | normalised viability (MDA-MB-231; 1 nM): 99.4%; normalised viability (MDA-MB-231; 100 nM): 64.9%; normalised viability (MDA-MB-468; 1 nM): 112%; normalised viability (MDA-MB-468; 100 nM): 33.1%; normalised viability (CAL-148; 0.3 nM): 90.1%; normalised viability (CAL-148; 10 nM): 101%; normalised viability (SK-BR-3; 1 nM): 98.9%; normalised viability (SK-BR-3; 100 nM): 93.8%; normalised viability (CAL-85-1; 0.3 nM): 89.9%; normalised viability (CAL-85-1; 10 nM): 91.2%; normalised viability (HDQ-P1; 0.3 nM): 111%; normalised viability (HDQ-P1; 10 nM): 113%; normalised viability (MDA-MB-453; 0.3 nM): 102%; normalised viability (MDA-MB-453; 10 nM): 83.5%; normalised viability (DU-4475; 0.3 nM): 94.7%; normalised viability (DU-4475; 10 nM): 101%; normalised viability (CAL-120; 1 nM): 84.4%; normalised viability (CAL-120; 100 nM): 50.5%
4 | c1ccc(C2CN3CCSC3=N2)cc1 (centres undefined) [Tetramisole] | 96.5 | 91.7 | 104 | 101 | 106 | 120 | 103 | 103 | 125 | 107 | 101 | 105 | 104 | 92.8 | 99.4 | 117 | 116 | 93.6 | 91.1 | 112 | normalised viability (HDQ-P1; 100 nM): 109%; normalised viability (MDA-MB-453; 30 nM): 104%; normalised viability (MDA-MB-453; 100 nM): 98.5%; normalised viability (DU-4475; 30 nM): 99.9%; normalised viability (DU-4475; 100 nM): 101%; normalised viability (CAL-120; 10 nM): 110%; normalised viability (CAL-120; 10000 nM): 105%
5 | COc1c(C)cnc(Cn2cnc3c(Cl)nc(N)nc32)c1C [BIIB021] | 86.1 | 34.1 | 23.8 | 93.5 | 43.2 | 21.3 | 87 | 88.6 | 72.3 | 85.7 | 14.5 | 12.8 | 81 | 81.5 | 86.1 | 110 | 110 | 96.5 | 94.8 | 18.4 | normalised viability (HDQ-P1; 100 nM): 77.8%; normalised viability (MDA-MB-453; 30 nM): 79.5%; normalised viability (MDA-MB-453; 100 nM): 38.4%; normalised viability (DU-4475; 30 nM): 76.1%; normalised viability (DU-4475; 100 nM): 80.8%; normalised viability (CAL-120; 10 nM): 84.1%; normalised viability (CAL-120; 10000 nM): 15.2%
6 | COc1ncc(-c2ccc3nccc(-c4ccnnc4)c3c2)cc1NS(=O)(=O)c1ccc(F)cc1F |  | 23.7 |  |  | 7.54 |  | 96.4 |  |  |  | 9.4 |  | 75.9 |  |  | 70.5 |  | 67.2 | 94.4 | 16.1 | normalised viability (MDA-MB-231; 1 nM): 96.2%; normalised viability (MDA-MB-231; 100 nM): 41.2%; normalised viability (MDA-MB-468; 1 nM): 92.9%; normalised viability (MDA-MB-468; 100 nM): 34.3%; normalised viability (CAL-148; 0.3 nM): 88.2%; normalised viability (CAL-148; 10 nM): 85.4%; normalised viability (SK-BR-3; 1 nM): 77.7%; normalised viability (SK-BR-3; 100 nM): 14.2%; normalised viability (CAL-85-1; 0.3 nM): 89.5%; normalised viability (CAL-85-1; 10 nM): 73.2%; normalised viability (HDQ-P1; 0.3 nM): 95.3%; normalised viability (HDQ-P1; 10 nM): 51.8%; normalised viability (MDA-MB-453; 0.3 nM): 103%; normalised viability (MDA-MB-453; 10 nM): 36.7%; normalised viability (DU-4475; 0.3 nM): 87.5%; normalised viability (DU-4475; 10 nM): 82.1%; normalised viability (CAL-120; 1 nM): 84.2%; normalised viability (CAL-120; 100 nM): 28.9%
7 | COc1cc(Nc2ncc(F)c(Nc3ccc4c(n3)NC(=O)C(C)(C)O4)n2)cc(OC)c1OC [R406] | 95.7 | 77.2 | 52.5 | 104 | 87.3 | 101 | 95.3 | 100 | 97.7 | 104 | 98.3 | 112 | 93.8 | 87.8 | 97.5 | 111 | 93.7 | 119 | 96.4 | 91.3 | normalised viability (HDQ-P1; 100 nM): 99.5%; normalised viability (MDA-MB-453; 30 nM): 102%; normalised viability (MDA-MB-453; 100 nM): 108%; normalised viability (DU-4475; 30 nM): 85.1%; normalised viability (DU-4475; 100 nM): 91.5%; normalised viability (CAL-120; 10 nM): 90.6%; normalised viability (CAL-120; 10000 nM): 80.5%
